Measurements from patent publication US20110300198A1, “HYDROCOLLOID - ESSENTIAL OIL PATCHES” (priority 2010, published 2011).
“And” between values parts separate entries of the source, which are not always exact repeats. Equal values may be shown once. Marks after values point to notes of the source that are not given here.

Assays:
[1] = Extraction of lavender essential oil constituents from the skin after patch application; type: in vivo; conditions: male, Sprague-Dawley, rat, 7.5 % lavender oil in patch, skin under 7.5% lavender oil patch, removed after 60 h, read-out: Concentration extracted from the skin
From the text: Male Sprague-Dawley rats, weighing 300-350 g, were used in the studies (Harlan, Rehovot, Israel). The experimental protocols were approved by the Hebrew University of Jerusalem Committee on the Use and Care of Animals. Rats were maintained under specified-pathogen-free (SPF) conditions and were allowed to acclimate to the environment for at least 7 days before their use in the study. Rats were anesthetized and the fur on their stomach shaved prior to exposure. Gum karaya patches with and without lavender essential oil were applied to the rat's stomach skin. Each rat was housed in an individual cage in order to prevent oral contamination of the essential oil by one rat eating another's patch. Blood samples (0.5 ml) were taken at 0, 12, 24, 36, 48 and 60 h from a nick at the tip of tail to determine contents of essential-oil components. Rats were restrained and the tail was gently massaged to facilitate blood collection. Blood samples were collected in vials containing 0.1 ml heparin (100 kU, Sigma). […] Urine samples were similarly analyzed by gas chromatography (GC).
Skin to which patches with or without lavender essential oil were adhered were sampled for extraction. […] When a control patch was adhered to the skin, no constituents of lavender essential oil were detected. […]

[2] = In-vivo experiment with HP-5 column, constituents in blood; design: species or system rat
From the text: Male Sprague-Dawley rats, weighing 300-350 g, were used in the studies (Harlan, Rehovot, Israel). The experimental protocols were approved by the Hebrew University of Jerusalem Committee on the Use and Care of Animals. Rats were maintained under specified-pathogen-free (SPF) conditions and were allowed to acclimate to the environment for at least 7 days before their use in the study. Rats were anesthetized and the fur on their stomach shaved prior to exposure. Gum karaya patches with and without lavender essential oil were applied to the rat's stomach skin. Each rat was housed in an individual cage in order to prevent oral contamination of the essential oil by one rat eating another's patch. Blood samples (0.5 ml) were taken at 0, 12, 24, 36, 48 and 60 h from a nick at the tip of tail to determine contents of essential-oil components. Rats were restrained and the tail was gently massaged to facilitate blood collection. Blood samples were collected in vials containing 0.1 ml heparin (100 kU, Sigma). A 10-μl volume of aqueous linalyl isovalerate stock solution was added as an internal standard to each blood sample and samples were stored at −80° C. After 60 h, patches were removed and the application site was wiped with 70% alcohol. Animals were sacrificed and the patch of stomach skin to which the essential oil patch had been applied was removed and minced into small pieces. The skin pieces were placed in 1 ml of ethanol containing linalyl isovalerate as the internal standard and sonicated for 30 min after heating to 50° C. A 10-μl aliquot was then injected straight into the gas chromatograph. A urine sample (0.5 ml) was obtained from the bladder immediately after sacrifice. Urine samples were similarly analyzed by gas chromatography (GC).
Blood (0.5 ml) or phosphate buffer (0.5 ml) was collected at t=0, 12, 24, 36, 48 and 60 h. Blood samples were placed in Eppendorf heparin-coated glass vials (Agilent) by heparin-washed syringe, which were sealed with septa and screw caps. Each vial contained 100 μl of heparin and blood samples were frozen at −80° C. for storage. Prior to analysis, the blood or phosphate buffer was thawed to room temperature, a 10-μl volume of internal standards (6.5 mg linalyl isovalerate and 6.5 mg geranyl formate in 25 ml acetonitrile) was added to the vial and then the mixture was vortexed. The vials were tightly capped using a clear cap with septum. The septa were pre-punctured immediately before analysis using a needle to facilitate the insertion of the fiber sheath. The fiber sheath was inserted through the septum, and positioned to expose the fiber in the center of the headspace. The vial was placed on a heating block to maintain temperature at a constant 50° C. and the solid-phase microextraction (SPME) assembly was clamped securely. Absorption time was 30 min. No stirring was required. After absorption, the SPME fiber sheath was immediately transferred to the GC injector for desorption for 5 min and GC analysis.
GC was performed on an Agilent 7890A gas chromatograph equipped with a split/splitless capillary injector, flame ionization detection (FID) system and GC Chem Station (Version B.03.01; Agilent Technologies 2007). Chromatography was carried out on a WAX or HP-5 column (30 m×0.32 mm×0.25 μm). The GC operating conditions were: splitless or split 1:40 injector 240° C., oven 50° C. for 1 min and then 10° C. min^−1 to 160° C., then 25° C. min^−1 to 240° C. and held for 6 min; the carrier gas was hydrogen.
In this experiment, patches containing lavender essential oil were adhered to the abdomen area. Patches without essential oil served as blanks. […] Detection under splitless conditions facilitated the detection of linalyl acetate, linalool, camphor, borneol and α-terpineol, the latter two being additional constituents detected only under these conditions. High concentrations of linalool, borneol and camphor were detected, in comparison to low levels of terpeneol and linalyl acetate. […]

[3] = Ex-vivo transfer of essential-oil constituents through the skin in Franz diffusion cells; type: in vitro ADME, rat; conditions: for Accumulated concentration transferred through the skin: from gum karaya-Lavandula angustifolia essential oil patch (7.5% oil); for Accumulated concentration diffused through the skin: mixture of Lavandula angustifolia essential oil and almond oil rubbed on the skin
Protocol: Ex-vivo release studies were performed in Franz diffusion cells (FCs) (PermeGear, Hellertown, Pa.). Stomach skin pieces (1.2 cm×1.2 cm) from a male rat, which were stored in the freezer for 1 month, were thawed at room temperature and placed in glass FCs. The surface area for absorption was 0.64 cm2. The FCs were thermoregulated with a water jacket at 32° C. The 4.5-ml volume of the receptor chamber of the FC was filled with a receptor solution containing 5% (w/v) bovine serum albumin (BSA) diluted with phosphate buffer pH 7.4. […] The receptor solution was continuously agitated with a magnetic stirrer. During the experiments, the donor compartments and sampling arms were sealed to prevent evaporation. The fluid in the receptor chamber was removed after different periods of time (0, 6, 12, 24, 36 and 48 h) and replaced with fresh phosphate buffer solution. Samples were stored at 4° C. after sampling, prior to analysis. Samples were analyzed in a gas chromatograph (Agilent Technologies, Santa Clara, Calif.) with a WAX 30 m×0.32 mm×0.25 μm (Agilent) column.
Transdermal delivery of essential-oil components through rat skin from both lavender essential oil, which includes a high proportion of terpenoids, and Valencia orange essential oil, which includes a considerable amount of terpene, entrapped within gum-karaya-based patches, was examined. In addition to the regular patch adhered to the skin to be tested for essential-oil delivery by the traditional FCs and by in vivo tests (detailed below), another experiment was performed in which the skin was smeared with an almond-essential oil mixture, in order to partially imitate the situation in which the skin is massaged in an aromatherapy session. All experiments were conducted at ambient temperature and the inclusion of the essential oil as part of the almond oil-essential oil mixture (for the massage-like simulation) was equal in quantity and proportion to the inclusion of essential oil within the patch.

[4] = cited from earlier work
[5] = cited from earlier work; remark: listed apart in the source
[6] = male, Sprague-Dawley, rat, in vivo

SMILES | % diffused (of initial amount of entrapped essential oil) ([3]; Almond-lavandula mixture, 0 h) | % diffused (of initial amount of entrapped essential oil) ([3]; Almond-lavandula mixture, 6 h) | % diffused (of initial amount of entrapped essential oil) ([3]; Almond-lavandula mixture, 12 h) | % diffused (of initial amount of entrapped essential oil) ([3]; Almond-lavandula mixture, 24 h) | % diffused (of initial amount of entrapped essential oil) ([3]; Lavandula patch, 0 h) | % diffused (of initial amount of entrapped essential oil) ([3]; Lavandula patch, 6 h) | % diffused (of initial amount of entrapped essential oil) ([3]; Lavandula patch, 12 h) | Accumulated concentration transferred through the skin ([3]; 6 h) | Accumulated concentration transferred through the skin ([3]; 12 h) | Accumulated concentration transferred through the skin ([3]; 24 h) | Accumulated concentration diffused through the skin ([3]; 6 h) | Accumulated concentration diffused through the skin ([3]; 12 h) | Accumulated concentration diffused through the skin ([3]; 24 h) | Log P [4] | Solubility in water [5] | also measured
C=CC(C)(CCC=C(C)C)OC(C)=O (stereo not drawn) [Linalyl acetate] | 0.00^a % | 0.107 ± 0.150^a % | 0.153 ± 0.216^a % | 0.246 ± 0.344^a % | 0.00^a % | 0.008 ± 0.011^a % | 0.013 ± 0.018^a % | 0.15 ± 0.14^a mg/L | 0.26 ± 0.25^a mg/L | 0.37 ± 0.01^a mg/L | 2.30 ± 2.24^a mg L^−1 | 3.33 ± 3.23^a mg L^−1 | 5.62 ± 4.10^a mg L^−1 | about 4 | relatively low | concentration at 60 h ([1]; in vivo, ethanol extract): 241 ng/mL; Concentration observed in the blood ([2]; quoted for comparison with the skin extract): 0.009 mg/L
C=CC(C)(O)CCC=C(C)C (stereo not drawn) [Linalool] | 0.00^a % | 1.29 ± 1.53^a % | 2.01 ± 2.09^a % | 3.93% and 3.93 ± 0.01^a % | 0.00^a % | 0.73 ± 0.16^b % | 1.53 ± 0.03^c % | 16.49 ± 2.81^a mg/L | 34.46 ± 1.20^b mg/L | 61.64 ± 3.83^c mg/L | 31.07 ± 36.72^a mg L^−1 | 48.34 ± 50.41^a mg L^−1 | 94.78 ± 0.19^a mg L^−1 | about 3 | relatively high | concentration at 60 h ([1]; skin (ethanol extract of the application site), topical): 62 ng/mL; Concentration observed in the blood [2, 6]: 0.099 mg/L; Highest value in blood [2, 6]: 0.099 mg/L; concentration at 60 h [2, 6]: 53 ng/mL; % diffused (of initial amount of entrapped essential oil) ([3]; Lavandula patch, 24 h): 2.74 ± 0.31^d %; Calculated steady-state flux ([3]; rubbing in a mixture with almond oil): 0.027 mg.cm^−2 h^−1; Calculated steady-state flux ([3]; transferred from a lavender essential oil patch): 0.018 mg.cm^2 h^−1
